Reference: US20260076937A1, “COMPOSITION FOR PREVENTING OR TREATING AUTOIMMUNE DISEASES COMPRISING A BCAT1 INHIBITOR” (Seoul National University R&DB Foundation, priority 2024, published 2026)
“Also recorded” adds a separate entry of the source. Like-named read-outs stand apart in the source and are kept apart here. Residues, ends and D or L forms follow the SMILES beside them. *: point of attachment. Cbz = O=C(OCc1ccccc1)*

Experiments:
[1] = test system: TCR-stimulated human CD4+ T cells; assay: 3H-leucine uptake assay; type: cell-based; conditions: BCH 50 mM, JPH203 10 μM, LβhL 400 mg/L
Experimental: After the culture medium was removed, the cells were cultured in HBSS for 10 minutes. ^3H-leucine or ^3H-methionine (Perkin Elmer, Waltham, MA) uptake assays were initiated by culturing cells for 15 min in HBSS with 0.5-1 μCi. Cells were separated with 1 M NaOH after three washes with ice-cold HBSS. Radioactivity was measured using a beta scintillation counter MicroBeta® (Perkin Elmer).

HIF-1α [2] = assay: HIF-1α immunoblot in TCR-stimulated CD4+ memory T cells; type: cell-based, human; conditions: for HIF-1α expression reduced by Bi2 (effect of added substance): Bi2 plus HMB 0.4 mM, CoCl2, VH298 or MG132; for HIF-1α protein expression: TCR-stimulated CD4+ memory T cells, Bi2 10 μM, CoCl2 100 μM, VH298 100 μM, MG132 5 μM
Experimental: (§1) Cells were cultured in radioimmunoprecipitation assay (RIPA) buffer (150 mM NaCl, 10 mM Na2HPO4, pH 7.2, 1% Nonidet P-40, 0.5% deoxycholate) containing phenylmethylsulfonyl fluoride (PMSF; Millipore Sigma, Burlington, MA), EDTA, protease and phosphatase inhibitor cocktail (Thermo Fisher Scientific) to extract total protein. Proteins were separated on 8-10% SDS-polyacrylamide gels and blotted onto polyvinylidene difluoride (PVDF) membranes (Bio-Rad, Hercules, CA) followed by 5% BSA in Tris buffered saline (TBS) with 0.1% Tween 20 and blocked for 1 hour. Membranes were cultured overnight with anti-human SLC7A5, anti-BCAT, anti-phospho-p70S6K, anti-p70S6K, anti-HIF-1α (all provided by Cell Signaling Technology, Danvers, MA) primary antibodies at 4° C., followed by culture with HRP-conjugated secondary antibodies for 1 hour at room temperature. Membranes were developed using SuperSignal West Femto Maximum Sensitivity Substrate or SuperSignal West Pico PLUS Chemiluminescent Substrate system (Thermo Fisher Scientific).

mTORC1 = assay: Phospho-p70-S6K immunoblot (mTORC1 activity) in CD4+ memory T cells; type: cell-based, human; conditions: HMB 0.4 mM, TCR stimulation 1 hour
Experimental: as §1

[3] = oral administration, healthy adults; cited from earlier work
HIF-1α [4] = assay: RT-qPCR of HIF-1α and HIF-1α target genes in CD4+ memory T cells; type: cell-based, human; conditions: HMB 0.4 mM
Experimental: Total RNA was prepared using TRIzol reagent (Life Technologies, Grand Island, NY), followed by cDNA synthesis (Promega, Madison, WI), followed by real-time quantitative RT-PCR with a CFX system (Bio-Rad, Hercules, CA) using SensiFAST SYBR® Lo-ROX (Bioline, London. UK). Gene expression levels were normalized for […] expression using the comparative CT method (ΔΔCT).

[5] = test system: human CD4+ memory T cells; assay: Cholesterol analysis in cell lysates; type: cell-based; conditions: Bi2 10 μM plus HMB 0.4 mM
Experimental: Total cholesterol amount in cultured cells was determined using a fluorometric Amplex™ Red Cholesterol Assay Kit (Thermo Fisher Scientific) according to the manufacturer's instructions.

[6] = test system: TCR-stimulated human CD4+ memory T cells; assay: Cytokine ELISA of culture supernatants, CD4+ memory T cells; type: cell-based; conditions: for IFN-γ production by CD4+ memory T cells / IL-17A production by CD4+ memory T cells: TCR stimulation 3 days, Bi2 10 μM, JPH203 10 μM, LβhL 400 mg/L; for IFN-γ production by CD4+ memory T cells: HMB 0.4 mM, VH298 100 nM; for IL-17A production by CD4+ memory T cells: statin 10 μM
Experimental: The study protocol was reviewed and approved by the Institutional Review Board (IRB) of Seoul National University Hospital. Peripheral blood was drawn from healthy controls (HC) after obtaining written consent from study participants, and all experiments were performed according to approved guidelines. Peripheral blood mononuclear cells (PBMCs) were isolated from peripheral blood using density gradient centrifugation (Biocoll separation solution; BIOCHROM Inc., Cambridge, UK). Total CD4^+ T cells, naive T cells and memory CD4^+ T-cells were isolated in a negative selection manner from CD14^+ monocyte depleted PBMCs using the MojoSort™ Human Total CD4^+ T-Cells, CD4^+ naive T-cells and CD4^+ memory T-cell isolation kit (BioLegend, San Diego, Calif.). Purified T cells were cultured in RPMI 1640 medium (hereinafter, “complete RPMI 1640”) supplemented with 10% fetal bovine serum (FBS), 1% penicillin/streptomycin, and 1% L-glutamine. Cells were stimulated with anti-CD3/CD28-coated microbeads (1:10 ratio, Dynabeads T-Activator CD3/CD28, Thermo Fisher Scientific, Waltham, MA) in the presence of designated chemical inhibitors or reagents including 2-amino-2-norbornanecarboxylic acid (BCH), JPH203, acetate, MG132, VH298, cobalt chloride (CoCl2), cycloheximid (CHX) (all provided by Sigma-Aldrich, St. Louis, MO), BCAT1 inhibitor 2 (Bi2: provided by Cayman Chemical, Ann Arbor, MI), 3-hydroxy-3-methylbutyric acid (HMB; provided by Thermo Fisher Scientific, Waltham, MA), and L-β-homoleucine (LβhL; provided by Santa Cruz Biotechnology, Heidelberg, Germany). In some experiments, a customized medium depleted of five essential amino acids (leucine, valine, isoleucine, phenylalanine, methionine) was used (Welgene, Gyeongsan, South Korea). All amino acids used (L-leucine, L-valine, L-isoleucine, L-phenylalanine, L-methionine) were purchased from Sigma-Aldrich.
IL-17A and IFN-γ amounts in culture supernatants were quantified using commercially available human ELISA kits (IL-17A ELISA kit by eBioscience and human IFN-γ ELISA MAX Deluxe by BioLegend) according to the manufacturer's instructions. Light density was measured using an Infinite M200 instrument (Tecan, Männedorf, Switzerland).

[7] = test system: TCR-stimulated human CD4+ naive T cells; assay: Cytokine ELISA of culture supernatants, CD4+ naive T cells; type: cell-based; conditions: TCR stimulation 3 days
[8] = test system: human CD4+ naive and memory T cells; assay: CFSE dilution proliferation assay; type: cell-based; conditions: anti-CD3/CD28 microbeads; Bi2 10 μM, JPH203 10 μM, LβhL 400 mg/L
Experimental: To analyze T cell proliferative capacity, purified isolated human CD4+ T cells were labeled with 1 μM carboxyfluorescein succinimidyl ester (CFSE; Invitrogen, Waltham, MA, USA) and then stimulated with anti-CD3/CD28 antibody coated microbeads for 4 days at 37° C. Cells were stained with 7AAD (BD Biosciences) for 10 minutes to distinguish dead cells and the extent of CFSE dilution in 7AAD-cells was measured by BD LSRFortessa to analyze proliferative capacity. Antibodies listed in Table 2 and previously known BD LSRFortessa cell analyzers were used.

EAE mice = assay: Experimental autoimmune encephalomyelitis (EAE) model; type: in vivo, mouse
[9] = Bi2 10 μM plus acetate, HMB or VH298, 3 days
[10] = Bi2 10 mg/kg or LβhL 1 g/kg i.p.

With `NC1(C(=O)O)CC2CCC1C2` (centres unmarked) [BCH, 2-amino-2-norbornanecarboxylic acid] the 3H-leucine uptake [1] was “greatly reduced”.
With `[Cl][Co][Cl]` [CoCl2, cobalt chloride] the “HIF-1α expression reduced by Bi2 (effect of added substance)” value (shortened to “HIF-1α expression reduced by Bi2”) (HIF-1α [2]) was “none of these inhibitors affected” and the HIF-1α protein expression (HIF-1α [2]) was “accumulation of HIF-1α”.
With `CC(C)(O)CC(=O)O` [HMB, 3-hydroxy-3-methylbutyric acid] the HIF-1α degradation rate (HIF-1α [2]; 24 h Bi2 pretreatment, cycloheximide chase, with or without HMB) was “did not affect”, the “HIF-1α expression reduced by Bi2” value (HIF-1α [2]) was “abrogates this attenuation; also recorded: reversed; also recorded: increased” and the “inhibition of mTORC1 activity by Bi2 (effect of HMB supplementation)” value (mTORC1) was “time dependently counteracted”. The plasma half-life [3] was “about 2.5 hours”, the plasma level achievable [3] was 400 µM and the “time to peak plasma level” value [3] was 60 to 120 min. The “Bi2-reduced HIF-1α mRNA (effect of HMB supplementation)” value (HIF-1α [4]) was “rapidly abolished”, the “Bi2-reduced SCL2A1, LDHA and PGK1 mRNA (effect of HMB supplementation)” value (HIF-1α [4]; 72 hours of TCR stimulation) was “eliminated” and the “cholesterol in Bi2-treated cells (effect of HMB supplementation)” value [5] was “inhibited; also recorded: decreased”. The “IL-17A production in Bi2-treated CD4+ memory T cells (effect of added substance)” value (“IL-17A production … (effect of added substance)” for short) [6, 9] was “partially reversed; also recorded: resolved” and the “IFN-γ production by CD4+ memory T cells” value [6] was “not affected; also recorded: did not affect”.
For `Nc1cc(COc2c(Cl)cc(C[C@H](N)C(=O)O)cc2Cl)c2oc(-c3ccccc3)nc2c1` [JPH203], the “IL-2 production by CD4+ naive T cells” value [7] was “not affected”, the “proliferation (CFSE dilution)” value [8] was “completely blocked” and the “IFN-γ production by CD4+ memory T cells” value [6] was “decreased significantly”. The “IL-17A production by CD4+ memory T cells” value [6] was “decreased significantly” and the 3H-leucine uptake [1] was “greatly reduced”.
With `CC(C)C[C@H](N)CC(=O)O` [LβhL, L-β-homoleucine] the “proliferation (CFSE dilution)” value [8] was “did not affect”, the “CD4+ T-cells producing IL-17A in spinal cord infiltrates and draining LN” value (EAE mice; [10]) was “significantly reduced” and the “HIF-1α expression in CD4+ T-cells of spinal cord (intracellular staining)” value (EAE mice; [10]) was “decreased”. For the same compound, the “cell infiltration in spinal cord” value (EAE mice; [10]) was “significantly lower”, the “nerve damage, spinal cord histology” value (EAE mice; [10]) was “significantly lower” and the “EAE clinical score / severity” value (EAE mice; i.p. three times a week for 14 days, Bi2 10 mg/kg, LβhL 1 g/kg) was “attenuated; also recorded: improves EAE induction”. The “IL-17A production by CD4+ memory T cells” value [6] was “preferentially reduced; also recorded: attenuates” and the 3H-leucine uptake [1] was “competitively inhibited”.
With `CC(C)C[C@@H](C=O)NC(=O)[C@H](CC(C)C)NC(=O)[C@H](CC(C)C)NC(=O)OCc1ccccc1` [MG132] (Cbz-Leu-Leu-Leu-aldehyde) the “HIF-1α expression reduced by Bi2” value (HIF-1α [2]) was “none of these inhibitors affected” and the HIF-1α protein expression (HIF-1α [2]) was “accumulation of HIF-1α”.
In the case of `Cc1ncsc1-c1ccc(CNC(=O)[C@@H]2C[C@@H](O)CN2C(=O)[C@@H](NC(=O)C2(C#N)CC2)C(C)(C)C)cc1` [VH298], the “HIF-1α expression reduced by Bi2” value (HIF-1α [2]) is reported as “none of these inhibitors affected”, the HIF-1α protein expression (HIF-1α [2]) is reported as “accumulation of HIF-1α” and the “IL-17A production … (effect of added substance)” value [6] is reported as “restores; also recorded: fully restored”. For the same compound, the “IFN-γ production by CD4+ memory T cells” value [6] was “did not affect”.
With `CC(=O)O` [acetate] the “IL-17A production … (effect of added substance)” value [6, 9] was “dose-dependently reduced” and the “IFN-γ production in Bi2-treated CD4+ memory T cells (effect of added substance)” value ([6]; Bi2 10 μM plus acetate, 3 days) was “upregulated”.
